Where two headings read alike, the source gives them in different places.
Key:
[1] = test system: Peripheral blood mononuclear cells co-cultured with venular endothelial cells (HUVEC) (LPS system); experiment: BioMAP LPS system; format: cell-based, human; details: procedure of Example 827
[2] = test system: Bronchial epithelial cells (BE3C system); experiment: BioMAP BE3C system (IL-1β, TNFα, IFNγ); format: cell-based, human; details: Homo sapiens, Epithelial cell, 24 h; 10 uM; procedure of Example 831; read-out: % decrease in MMP-1
[3] = test system: Peripheral blood mononuclear cells co-cultured with venular endothelial cells (Sag system); experiment: BioMAP Sag system (T-cell ligands); format: cell-based, human; details: 10 uM; procedure of Example 828
Protocol: The BioMAP platform (BioMAP® Diversity PLUS® Panel from Eurofins) is an in vitro phenotypic profiling technology that screened the compounds of the present disclosure (hereafter indicated as test agents) in human primary cell-based systems modelling complex tissue and disease states. The BioMAP assays were performed using the Eurofin's BioMAP Technology Platform as (see references 1 to 13 in the example 824 section) to model different diseases on primary cell-based model systems. These systems consisted of either single primary cell types or co-culture cells. Adherent cell types were cultured or co-cultured in 96 or 384-well plates until confluence followed by the addition of compounds prepared in DMSO at a final concentration of ≤0.1%. In each cell-based system, primary cells from heathy donors (2-6 donors) were pooled and treated with compounds at 1 and 10 μM dose 1h prior to stimulation and remain in culture as indicated in Example 825, Example 826, Example 827, Example 828, Example 829, Example 830, Example 831, Example 832, Example 833, Example 834, Example 835, Example 836 and Example 837. For on the BioMAP® Diversity PLUS® Panel, please see the following references, which are incorporate herein.
Following the general procedure as described in Example 824, Peripheral blood mononuclear cells were co-cultured with venular endothelial cells and treated with soluble antigen (T-cell ligands) (Sag system) in the presence or absence of compounds to model autoimmune and chronic inflammation. Biomarkers read out were; MCP-1, CD38, CD40, E-selectin, CD69, IL-8, MIG, PBMC cytotoxicity, Proliferation and SRB.

[4] = test system: Bronchial epithelial cells co-cultured with dermal fibroblast (BF4T system); experiment: BioMAP BF4T system (TNFα and IL-4); format: cell-based, human; details: Homo sapiens, 24 h; 10 uM; procedure of Example 830; read-out: % increase in VCAM-1
[5] = test system: Venular Endothelial cells (HUVEC) (4H system); experiment: BioMAP 4H system (IL-4 and histamine); format: cell-based, human; details: 10 uM; procedure of Example 826
[6] = test system: Coronary artery smooth muscle cells (CASM3C system); experiment: BioMAP CASM3C system (IL-1β, TNFα, IFNγ); format: cell-based, human
[7] = test system: HepG2 cells; experiment: Glucose uptake (Glucose Uptake-Glo); format: cell-based; details: Homo sapiens, 50 uM, read-out: % increase in Glucose Uptake
[8] = test system: Dermal fibroblasts (HDF3CGF system); experiment: BioMAP HDF3CGF system (IL-1β, TNFα, IFNγ, EGF, bFGF, PDGF-BB); format: cell-based, human; details: Homo sapiens, Fibroblast, 72 h; 1 uM; read-out: % increase in 72 Hour Proliferation
[9] = test system: Peripheral blood mononuclear cells co-cultured with B-cells (BT system); experiment: cells; details: Homo sapiens, 72 h, read-out: % decrease in sIL-17
[10] = test system: Propionic Acidemia (PA) primary fibroblasts GM00371; experiment: Mitochondrial respiration, XFe96 Extracellular Flux Analyzer (OCR/ECAR), PA fibroblasts GM00371; format: cell-based; details: Homo sapiens, Fibroblast
[11] = test system: primary fibroblasts (healthy controls and PA, MMA, BCKDK, PDH, VLCAD, LS, PC, GA, VLCFA, KSS, FXN, HD); experiment: Measurement of ROS (H2DCFDA) in primary fibroblasts; format: cell-based, human; details: Homo sapiens, procedure Example 812, Assay Condition C
Summary of the method: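 Patient and healthy-control primary fibroblasts switched to supplemented DMEM 24 h before assay, then treated with compound (10 μM) plus H2DCFDA (22 μM) for 2 h (PA, MMA lines) or 24 h (other lines). Kinetic fluorescence at 492/527 nm over 60 min; only live cells analysed.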

[12] = test system: Leigh Syndrome (LS) primary fibroblasts GM03672; experiment: NADP+/NADPH (NADP/NADPH-Glo), Leigh fibroblasts GM03672; format: cell-based; details: Homo sapiens, Fibroblast, Leigh GM03672 P8, assay condition B (1 mM glucose, 2 mM L-glutamine, 1 mM pyruvate, 10% FBS), 24h, read-out: Increase in Total NADP+ + NADPH
Protocol: Primary adherent fibroblasts were cultured in minimum essential medium (MEM) (Gibco, 25030081) supplemented with 2 mM L-Glutamine (Gibco, 25030081), 15% fetal bovine serum (FBS) (Gibco, 26400044) and 1% penicillin/streptomycin (Gibco, 5140122) at 37° C. and 5% CO2. Cells were collected for either passaging or experiment at ˜70-80% confluence. Cells were obtained by trypsinization and seeded in cell culture microplates either white plate (Thermo Fisher Scientific, 152028) for luminescent measurement or black plate (Thermo Fisher Scientific, 165305) for fluorescent based read out for different assays listed below. Cells were obtained by trypsinization and […] were seeded and allowed to adhere for 16-18 hours to have confluency around 70-80% in the cell well with culture media. After 24 hours prior to measurements (37° C., 5% CO2) media was changed to Dulbecco's Modified Eagle Medium (DMEM, Agilent Seahorse cat #103575-100) with the appropriate supplements as stated below.
Primary fibroblasts assayed were Propionic Acidemia (PA) (GM03590 Coriell Institute for Medical Research, Tsi 6337 Trans-Hit Bio), Methylmalonic Acidemia (MMA) (Tsi 5224 Trans-Hit Bio), Subnormal activation of pyruvate dehydrogenase complex (PDH) (GM01503 Coriell Institute for Medical Research), Very long-chain acyl-CoA dehydrogenase (VLCAD) (GM17475), Leigh Syndrome (LS) (GM03672, GM13411 Coriell Institute for Medical Research), Pyruvate Carboxylase Deficiency (PC) (GM00444 Coriell Institute for Medical Research). 10 μM of Compounds were added for 2 hours in PA, MMA lines and for 24h for the other fibroblast lines.
Assay was performed according to manufacturer instructions (NADP+/NADPH-Glo Assay Promega, G9082). Assay required a plate for total measurement of NADP+/NADPH and a plate for individual measurement of NADP+ or NADPH. For every assay a 12-point standard curve is prepared ranging from 400 nM to 0.625 nM. Media is removed and replaced with 50 μl of PBS for both assays.
For individual NADP+/NADPH measurements, 50 μl of 1% DTAB (Sigma, D5047) (cell lysis reagent) in 0.2N NaOH was added to the plates and 100 μl of lysate was split into two plates with 50 μl each from which ratio of NADP/NADPH can be calculated. 25 μl of 0.4N HCl were added to the NADP+ plates and both NADP+ and NADPH plates were heated at 60° C. for 15 minutes. The acid and heat treatment destroyed NADPH allowing individual NADP+ measurements while heating in basic conditions destroys NADP+ allowing individual NADPH measurement. After 15 minutes plates were allowed to come to room temperature and Trizma base (Sigma, T1699) was added to the NADP+ plates to neutralize the acid and HCl Trizma hydrochloride (Sigma, T2694) was added to the NADPH plates. The NADNADPH glo reagent was prepared by adding 125 μl of NAD cycling substrate, 125 μl of reductase, 125 μl of reductase substrate, 125 μl NAD cycling enzyme to a total of the 25 ml of NAD GLO reagent. 1:1 ratio of total volume of reagent was added to the individual NADP+, NADPH measurements (total 100 μl) and 50 μl were added for the total NAD/NADPH measurements. Luminescence was measured for 30-60 minutes within the linear range.
A total dead cell count was performed as described in Example 817 and only alive cells were used for analysis.

[13] = test system: primary fibroblasts GM00649, GM06225, GM00612, GM00444, GM03672; experiment: MMP, ROS and ATP multiplex (ArrayScan); format: cell-based; details: Homo sapiens, Fibroblast; Leigh GM03672; procedure Example 838; 50 μM (table line r25); read-out: Decreased ROS by at least 10%
Protocol: Cell culture and treatments. Primary adherent fibroblasts were cultured in minimum essential medium (MEM) (Gibco, 25030081) supplemented with 2 mM L-Glutamine (Gibco, 25030081), 15% fetal bovine serum (FBS) (Gibco, 26400044) and 1% penicillin/streptomycin (Gibco, 5140122) at 37° C. and 5% CO2. Cells were collected for either passaging or experiment at ˜70-80% confluence. Cells were obtained by trypsinization and seeded at 10000 cells/well in cell culture microplates (Seahorse Bioscience, 101085-004) and allowed to adhere for 16 hours in culture media. After media was refreshed with DMEM (Agilent Seahorse 103575-100) supplemented with 1 mM glucose and 10% FBS (Gibco, 26400044). At the end of the incubation period, the cells were loaded with the relevant dye/antibody for each cell health marker. The assay provided simultaneous measurement of cell health parameters including cell count, ROS formation (DHE), mitochondrial membrane potential (MitoTracker®) and cellular ATP content (CellTiter-Glo®, Promega). The plates were then scanned using an automated fluorescent cellular imager, ArrayScan® (Thermo Scientific Cellomics). Assay conditions were optimized by one skilled in the art.
Primary cells used in this example were obtained from Coriell Institute for Medical Research and consisted of GM00649, MSUD (Maple Syrup Urine Disease) Tyle IA; GM06225, Kearns-Sayre Syndrome; GM00612, MSUD (Maple Syrup Urine Disease) Tyle II GM00444, Pyruvate Carboxylase Deficiency and GM03672, Leigh Syndrome.

SMILES: CCC(=O)OCC(C)(C)[C@@H](O)C(=O)NCCC(=O)NCCSC(=O)CCC(=O)O [Compound 157, 4-[(2-[3-[(2R)-2-hydroxy-3,3-dimethyl-4-(propanoyloxy)butanamido]propanamido]ethyl)sulfanyl]-4-oxobutanoic acid]
- % increase in Tissue Factor ([1]; 1 uM): ≥10%
- inhibition at 10 µM ([1]; Homo sapiens, HUVEC, 24 h, 10 uM, read-out: % decrease in IL-1α): ≥ 10%
- inhibition at 10 µM ([1]; Homo sapiens, HUVEC, 24 h, 10 uM, read-out: % decrease in TissueFactor): ≥ 10%
- activation at 10 µM ([1]; Homo sapiens, HUVEC, 24 h, 10 uM, read-out: % increase in sTNFα): ≥ 10%
- inhibition at 10 µM [2]: ≥ 10%
- % increase in Proliferation [3]: ≥10%
- activation at 10 µM [4]: ≥ 10%
- % decrease in MCP-1 [5]: ≥10%
- % decrease in Proliferation ([6]; 1 uM, procedure of Example 832): ≥10%
- % decrease in HLA-DR ([6]; 10 uM): ≥10%
- activation at 50 µM [7]: ≥ 20%
- activation at 1 µM [8]: ≥ 10%
- inhibition at 1 µM [9]: ≥ 10%
- activation at 50 µM ([10]; assay condition C (10 mM glucose, 10% FBS), 50 μM, read-out: Increase in Maximal Respiratory Capacity AUC): ≥ 10%

SMILES: CC(C)(CO)[C@@H](OC(=O)CN)C(=O)NCCC(=O)NCCSC(=O)CCC(=O)O [Compound 1292, 4-[(2-[3-[(2R)-2-[(2-aminoacetyl)oxy]-4-hydroxy-3,3-dimethylbutanamido]propanamido]ethyl)sulfanyl]-4-oxobutanoic acid]
- inhibition at 10 µM ([11]; Fibroblast, KSS GM06225, read-out: Decreased ROS by at least 30%): ≥ 30%
- inhibition at 10 µM ([11]; Fibroblast, Leigh GM13411, read-out: Decreased ROS by at least 10%): ≥ 10%
- inhibition at 10 µM ([11]; FXN GM04078, read-out: Decreased ROS by at least 10%): ≥ 10%
- inhibition at 10 µM ([11]; FXN GM04078, read-out: Decreased ROS by at least 30%): ≥ 30%
- activation at 10 µM [12]: ≥ 10%
- inhibition at 50 µM [13]: ≥ 10%
- activation at 10 µM ([10]; assay condition D (1 mM glucose, 10% FBS), 10 μM, read-out: Increase in Spare Capacity AUC): ≥ 30%

— US20230107216A1, “PANTETHEINE DERIVATIVES AND USES THEREOF” (Comet Therapeutics, Inc., priority 2018, published 2023)
